Results taken from patent US10464906B2, “Crystalline forms of a histone deacetylase inhibitor” (Acetylon Pharmaceuticals, Inc., priority 2015, dated 2019).
In brackets after ≈: the same amount, converted by molar mass. Entries after “also recorded” stand apart in the source; their conditions may differ. Where two headings read alike, the source gives them in different places. Values belong to the molecule of their own block, whether it stands above or below them.

What was measured:
Assay type in all cases: physicochemical
[1] = Solid form stability test (up to 7 days) under high humidity, XRPD
Description: In one aspect, provided herein is 2-((2-chlorophenyl)(phenyl)amino)-N-(7-(hydroxyamino)-7-oxoheptyl)pyrimidine-5-carboxamide of Form I (referred to herein as “Form I”). Form I (of Compound (I)) was observed under a polarized microscope and its crystalline nature was determined by using X-ray powder diffraction (XRPD) and Pattern A was assigned to it for identification (See Example 3). The chemical structure of the material was confirmed by proton-nuclear magnetic resonance (^1H-NMR) and the thermal characterization of the material was carried out by differential scanning calorimetry (DSC) and thermal gravimetric analysis (TGA) (see Examples 2 and 3). […] The XRPD analysis of this form including peak identification is found in Example 11 (See FIG. 40).

[2] = Dynamic vapor sorption (DVS) with post-DVS XRPD; conditions: relative humidity between 0-95%
[3] = Solubility assessment of Form I, gravimetric, slurried 48 h in solvents/solvent mixtures; conditions: thermodynamic from solid
Description: The Solubility of Form I was measured gravimetrically in 15 different solvents and solvent mixtures at 15 and 45° C. About 75 mg of the compound was dispensed in 10 volumes (750 μL) of the solvent/solvent mixture and slurried for 48 h.
The vials were centrifuged. The supernatant was collected and left for slow evaporation under vacuum at 45° C. The solids obtained after evaporation were used to determine the solubility of Form I and analyzed by XRPD for any new forms.

[4] = Stability of crystalline forms under dry (vacuum, 45° C.) and humid (RH >95%) conditions, XRPD; conditions: for XRPD pattern after drying at 45° C. (under vacuum): dried under vacuum at 45° C.; for Form change after exposing the dried sample to high humidity conditions (XRPD): after drying at 45° C. under vacuum, then high humidity (RH >95%)
Description: For dry conditions, the sample was dried under vacuum at 45° C. followed by XRPD analysis. Later the sample was subjected to high humidity conditions (RH >95%) followed by XRPD analysis.
The MeOH and DCM solvates of Compound (I) were dried on XRPD plates under vacuum at 45° C. and were analyzed by XRPD the following day.
Pattern E was dried at 45° C. under vacuum overnight and analyzed by XRPD. The following day, it was subjected to high humidity conditions (>95%) and later analyzed by XRPD the next day. […] FIG. 26 illustrates the XRPD comparison of dried and humid samples with Compound (I), Form I, Pattern A.

[5] = Dynamic vapor sorption (DVS) with post-DVS XRPD; conditions: for Post DVS XRPD (crystalline form after DVS): XRPD of the post-DVS sample
Description: Samples were analyzed using an Aquadyne DVS-2 gravimetric water sorption analyzer. The relative humidity was adjusted between 2-95% and the weight of the sample was continuously monitored and recorded with respect to the relative humidity and time.
The material was subjected under Dynamic Vapor Sorption (DVS, FIG. 6).

[6] = Form change on heating or on storage at room temperature, XRPD
[7] = exposed to high humidity conditions

Compound: O=C(CCCCCCNC(=O)c1cnc(N(c2ccccc2)c2ccccc2Cl)nc1)NO [Form I, 2-((2-chlorophenyl)(phenyl)amino)-N-(7-(hydroxyamino)-7-oxoheptyl)pyrimidine-5-carboxamide]
Solid form stability under high humidity (XRPD) [1]: stability of Form I up to seven days; also recorded: stable under high humidity up to a week
Moisture uptake (DVS) [2]: less than 0.2%
solubility at 48 h ([3]; aqueous with cosolvent or surfactant or cyclodextrin, EtOH:H2O (1:1), temperature not stated, read-out: Solubility (moderately soluble)): 10 to 55 mg/mL (≈ 21.4 to 118 mM)
solubility at 48 h ([3]; aqueous with cosolvent or surfactant or cyclodextrin, acetone:H2O (1:1), temperature not stated, read-out: Solubility (moderately soluble)): 10 to 55 mg/mL (≈ 21.4 to 118 mM)
solubility at 48 h ([3]; organic solvent or mixture, Acetone, 15° C., read-out: Solubility): 2 mg/mL (≈ 4.27 mM)
solubility at 48 h ([3]; organic solvent or mixture, Acetone, 45° C., read-out: Solubility): 11 mg/mL (≈ 23.5 mM)
solubility at 48 h ([3]; organic solvent or mixture, Acetone:H2O (95:5), 15° C., read-out: Solubility): 21 mg/mL (≈ 44.9 mM)
solubility at 48 h ([3]; organic solvent or mixture, Acetone:H2O (95:5), 45° C., read-out: Solubility): 48 mg/mL (≈ 103 mM)
solubility at 48 h ([3]; organic solvent or mixture, Acetonitrile (ACN), 15° C., read-out: Solubility): < 1 mg/mL
solubility at 48 h ([3]; organic solvent or mixture, Acetonitrile (ACN), 45° C., read-out: Solubility): 1 mg/mL (≈ 2.14 mM)
solubility at 48 h ([3]; organic solvent or mixture, DCM, temperature not stated, read-out: Solubility (less soluble)): < 1 mg/mL
solubility at 48 h ([3]; organic solvent or mixture, DMA, temperature not stated, read-out: Solubility (freely soluble)): > 100 mg/mL
solubility at 48 h ([3]; organic solvent or mixture, Dimethylacetamide (DMA), 15° C., read-out: Solubility): > 100 mg/mL
solubility at 48 h ([3]; organic solvent or mixture, Dimethylacetamide (DMA), 45° C., read-out: Solubility): > 100 mg/mL
solubility at 48 h ([3]; organic solvent or mixture, EtOAc, temperature not stated, read-out: Solubility (less soluble)): < 1 mg/mL
solubility at 48 h ([3]; organic solvent or mixture, EtOH, temperature not stated, read-out: Solubility (moderately soluble)): 10 to 55 mg/mL (≈ 21.4 to 118 mM)
solubility at 48 h ([3]; organic solvent or mixture, EtOH:H2O (95:5), 15° C., read-out: Solubility): 18 mg/mL (≈ 38.5 mM)
solubility at 48 h ([3]; organic solvent or mixture, EtOH:H2O (95:5), 45° C., read-out: Solubility): 53 mg/mL (≈ 113 mM)
solubility at 48 h ([3]; organic solvent or mixture, Ethanol (EtOH), 15° C., read-out: Solubility): 11 mg/mL (≈ 23.5 mM)
solubility at 48 h ([3]; organic solvent or mixture, Ethanol (EtOH), 45° C., read-out: Solubility): 39 mg/mL (≈ 83.3 mM)
solubility at 48 h ([3]; organic solvent or mixture, Ethyl acetate (EtOAc), 15° C., read-out: Solubility): < 1 mg/mL
solubility at 48 h ([3]; organic solvent or mixture, Ethyl acetate (EtOAc), 45° C., read-out: Solubility): 1 mg/mL (≈ 2.14 mM)
solubility at 48 h ([3]; organic solvent or mixture, Heptane (HEP), 15° C., read-out: Solubility): < 1 mg/mL
solubility at 48 h ([3]; organic solvent or mixture, Heptane (HEP), 45° C., read-out: Solubility): < 1 mg/mL
solubility at 48 h ([3]; organic solvent or mixture, IPA, temperature not stated, read-out: Solubility (slightly soluble)): ~2 mg/mL (≈ 4.27 mM)
solubility at 48 h ([3]; organic solvent or mixture, Isopropanol (IPA), 15° C., read-out: Solubility): 1 mg/mL (≈ 2.14 mM)
solubility at 48 h ([3]; organic solvent or mixture, Isopropanol (IPA), 45° C., read-out: Solubility): 12 mg/mL (≈ 25.6 mM)
solubility at 48 h ([3]; organic solvent or mixture, MeOH, temperature not stated, read-out: Solubility (freely soluble)): > 100 mg/mL
solubility at 48 h ([3]; organic solvent or mixture, Methanol (MeOH), 15° C., read-out: Solubility): 11 mg/mL (≈ 23.5 mM)
solubility at 48 h ([3]; organic solvent or mixture, Methanol (MeOH), 45° C., read-out: Solubility): > 100 mg/mL
solubility at 48 h ([3]; organic solvent or mixture, TBME, temperature not stated, read-out: Solubility (less soluble)): < 1 mg/mL
solubility at 48 h ([3]; organic solvent or mixture, TFE, temperature not stated, read-out: Solubility (freely soluble)): > 100 mg/mL
solubility at 48 h ([3]; organic solvent or mixture, THF, temperature not stated, read-out: Solubility (moderately soluble)): 10 to 55 mg/mL (≈ 21.4 to 118 mM)
solubility at 48 h ([3]; organic solvent or mixture, Tert-butyl methyl ether (TBME), 15° C., read-out: Solubility): < 1 mg/mL
solubility at 48 h ([3]; organic solvent or mixture, Tert-butyl methyl ether (TBME), 45° C., read-out: Solubility): 2 mg/mL (≈ 4.27 mM)
solubility at 48 h ([3]; organic solvent or mixture, Tetrahydrofuran (THF), 15° C., read-out: Solubility): 13 mg/mL (≈ 27.8 mM)
solubility at 48 h ([3]; organic solvent or mixture, Tetrahydrofuran (THF), 45° C., read-out: Solubility): 50 mg/mL (≈ 107 mM)
solubility at 48 h ([3]; organic solvent or mixture, acetone, temperature not stated, read-out: Solubility (slightly soluble)): ~2 mg/mL (≈ 4.27 mM)
solubility at 48 h ([3]; organic solvent or mixture, acetonitrile, temperature not stated, read-out: Solubility (less soluble)): < 1 mg/mL
solubility at 48 h ([3]; organic solvent or mixture, heptane, temperature not stated, read-out: Solubility (less soluble)): < 1 mg/mL
solubility at 48 h ([3]; Water (H2O), 15° C., read-out: Solubility): < 1 mg/mL
solubility at 48 h ([3]; Water (H2O), 45° C., read-out: Solubility): < 1 mg/mL
solubility at 48 h ([3]; water, temperature not stated, read-out: Solubility (less soluble)): < 1 mg/mL
solubility at 48 h ([3]; trifluoroethanol (TFE), organic solvent or mixture, Trifluoro Ethanol (TFE), 15° C., read-out: Solubility): > 100 mg/mL
solubility at 48 h ([3]; trifluoroethanol (TFE), organic solvent or mixture, Trifluoro Ethanol (TFE), 45° C., read-out: Solubility): > 100 mg/mL
XRPD pattern after drying at 45° C. (under vacuum) [4]: Pattern A,
Hygroscopicity [5]: low hygroscopicity
Post DVS XRPD (crystalline form after DVS) [5]: no change in the crystalline form; also recorded: Pattern A,

Compound: O=C(CCCCCCNC(=O)c1cnc(N(c2ccccc2)c2ccccc2Cl)nc1)NO [Form II, 2-((2-chlorophenyl)(phenyl)amino)-N-(7-(hydroxyamino)-7-oxoheptyl)pyrimidine-5-carboxamide]
XRPD pattern after heating ([6]; 130° C. for 30 minutes): Pattern A
XRPD pattern after drying at 45° C. (under vacuum) [4]: Pattern D,
XRPD pattern after drying at 45° C. (under vacuum) ([4]; listed as Pattern B): Pattern D
Post DVS XRPD (crystalline form after DVS) [5]: Pattern D,
Post DVS XRPD (crystalline form after DVS) ([5]; listed as Pattern B): Pattern D
Weight change (DVS) [5, 7]: < 1%

Compound: O=C(CCCCCCNC(=O)c1cnc(N(c2ccccc2)c2ccccc2Cl)nc1)NO [Form III, 2-((2-chlorophenyl)(phenyl)amino)-N-(7-(hydroxyamino)-7-oxoheptyl)pyrimidine-5-carboxamide]
XRPD pattern after drying at 45° C. (under vacuum) [4]: Pattern D,
XRPD pattern after drying at 45° C. (under vacuum) ([4]; listed as Pattern C): Pattern D
Post DVS XRPD (crystalline form after DVS) [5]: Pattern D,
Post DVS XRPD (crystalline form after DVS) ([5]; listed as Pattern C): Pattern D
Weight change (DVS) [5, 7]: around 1.5%

Compound: O=C(CCCCCCNC(=O)c1cnc(N(c2ccccc2)c2ccccc2Cl)nc1)NO [Form IX, 2-((2-chlorophenyl)(phenyl)amino)-N-(7-(hydroxyamino)-7-oxoheptyl)pyrimidine-5-carboxamide]
XRPD pattern after drying at 45° C. (under vacuum) [4]: Pattern D (Form IV)
XRPD pattern after drying at 45° C. (under vacuum) ([4]; listed as Pattern I): Pattern D
Post DVS XRPD (crystalline form after DVS) [5]: Pattern D,
Post DVS XRPD (crystalline form after DVS) ([5]; listed as Pattern I): Pattern D

Compound: O=C(CCCCCCNC(=O)c1cnc(N(c2ccccc2)c2ccccc2Cl)nc1)NO [Form V, 2-((2-chlorophenyl)(phenyl)amino)-N-(7-(hydroxyamino)-7-oxoheptyl)pyrimidine-5-carboxamide]
Form change after exposing the dried sample to high humidity conditions (XRPD) [4]: no further form change
XRPD pattern after drying at 45° C. (under vacuum) [4]: Form VI, Pattern F
XRPD pattern after drying at 45° C. (under vacuum) ([4]; listed as Pattern E): Pattern F (Form VI)
Post DVS XRPD (crystalline form after DVS) [5]: Pattern F, Form VI
Post DVS XRPD (crystalline form after DVS) ([5]; listed as Pattern E): Pattern F
Moisture uptake (DVS) [5, 7]: < 0.15%

Next, values leading:

Form change after exposing the dried sample to high humidity conditions (XRPD) [4]: no further form change
XRPD pattern after drying at 45° C. (under vacuum) [4]: Form VIII (Pattern H)
XRPD pattern after drying at 45° C. (under vacuum) ([4]; listed as Pattern G): Pattern H
Post DVS XRPD (crystalline form after DVS) [5]: Pattern H,
Post DVS XRPD (crystalline form after DVS) ([5]; listed as Pattern G): Pattern H
Compound: O=C(CCCCCCNC(=O)c1cnc(N(c2ccccc2)c2ccccc2Cl)nc1)NO [Form VII, 2-((2-chlorophenyl)(phenyl)amino)-N-(7-(hydroxyamino)-7-oxoheptyl)pyrimidine-5-carboxamide]

XRPD pattern after storage ([6]; room temperature, reanalyzed after three days): Pattern A
XRPD pattern after drying at 45° C. (under vacuum) [4]: Pattern A
Compound: O=C(CCCCCCNC(=O)c1cnc(N(c2ccccc2)c2ccccc2Cl)nc1)NO [Pattern J]
